Columns and labels:
Test in all cases: Gene expression (quantitative RT-PCR) in TGFβ1-activated hHSC
Format in all cases: cell-based, human
[1] = tested on: αSMA gene expression in hHSC; settings: 10 μM; TGFβ1 1 ng/mL, 24 hours, serum free
Protocol: (§1) The human primary hepatic stellate cells (hHSC) (ScienCell) were cultured under standard conditions, as described above. For experiments to determine gene expression patterns, hHSC were plated at a density of 1.4×10^5 cells/well into 12-well plates and were cultured overnight. Next day, culture medium was removed, cells were washed with PBS (Invitrogen cat #14190) and serum-free and SteCGS-free medium was added for an additional 16 hours. Cells were treated with compounds in addition to TGFβ1 (1 ng/mL) in a serum-free and SteCGS-free medium for 24 hours.
(§2) Total RNA was isolated using RNeasy® Mini Kit (Qiagen) following manufacturer's instructions. 250 ng of total RNA were reverse transcribed in cDNA using M-MLV RT (Moloney Murine Leukemia Virus Reverse Transcriptase) (Invitrogen cat #28025) in presence of RT buffer 1× (Invitrogen), 1 mM DTT (Invitrogen), 0.18 mM dNTPs (Promega), 200 ng pdN6 (Amersham) and 30 U of RNase inhibitor (Promega).
(§3) Quantitative PCR was then carried out using the MyiQ Single-Color Real-Time PCR Detection or the iCycler iQ Multiplex Real-Time PCR Detection System (both systems from Biorad). Briefly, PCR reactions were performed in 96 Well plates on 5 μL of 5× diluted reverse transcription mix using the iQ SYBR Green Supermix kit. The experimental conditions were: 25 μL of volume reaction, 3 mM of MgCl2, and 0.5 μL each of reverse and forward primers (10 pMol).
(§4) Expression levels were normalized using the expression of 36B4 gene as reference.
(§5) For each gene, the standard curves were drawn by selecting the best points (at least three points) in order to have PCR reaction efficiency close to 100% and a correlation coefficient close to 1. Expression levels were determined using the standard curve equation for both the housekeeping gene and the target gene (taking into account the specific PCR efficiency of each target gene).
(§6) The induction factor vs TGFβ1 was determined as follow: […]
(§7) Thus, lower the induction factor is more the compound of interest inhibits the TGFβ1 activation of hHSC. Experimental results were expressed as mean±standard deviation (SD) of the induction factor.
(§8) The expression of both profibrotic and cancer associated genes was induced in the primary human hepatic stellate cells (hHSCs) by the treatment with the TGFβ1 (1 ng/mL) in serum free conditions. […] The expression of the genes of interest in both treated and untreated hHSCs was determined by the quantitative RT-PCR technique, following 24 hours of exposure to the TGFβ1.
(§9) Experimental results were expressed as Emax values that indicate the maximum inhibition, which was obtained at the concentration of 10 μmole/L. Statistical analyses were performed using an one-way ANOVA followed by Bonferroni post-hoc tests, using Sigma Plot 11.0 software.

[2] = tested on: VEGFR1 gene expression in hHSC; settings: 10 μM; TGFβ1 1 ng/mL, 24 hours, serum free
Protocol: as §1, §2, §3, §4, §5, §6, §7, §8, §9

[3] = tested on: Col4α1 gene expression in hHSC; settings: 10 μM; TGFβ1 1 ng/mL, 24 hours, serum free
Protocol: as §1, §2, §3, §4, §5, §6, §7, §8, §9

[4] = tested on: HGFR gene expression in hHSC; settings: 10 μM; TGFβ1 1 ng/mL, 24 hours, serum free
Protocol: as §1, §2, §3, §4, §5, §6, §7, §8, §9

[5] = tested on: TGFβR1 gene expression in hHSC; settings: 10 μM; TGFβ1 1 ng/mL, 24 hours, serum free
Protocol: as §1, with “Next day, culture medium was removed, cells were washed with PBS (Invitrogen cat #14190) and serum-free and SteCGS-free medium was added for an additional 16 hours.” left out
(§10) Total RNA was isolated using RNeasy® Mini Kit (Qiagen) following manufacturer's instructions.
as §3, §4
(§11) Expression levels were determined using the standard curve equation for both the housekeeping gene and the target gene (taking into account the specific PCR efficiency of each target gene).
as §6

[6] = tested on: FGFR1 gene expression in hHSC; settings: 3 μM; TGFβ1 1 ng/mL, 24 hours, serum free
Protocol: as §1, with “Next day, culture medium was removed, cells were washed with PBS (Invitrogen cat #14190) and serum-free and SteCGS-free medium was added for an additional 16 hours.” left out
as §10, §3, §4, §11, §6

[7] = tested on: Col1α1 gene expression in hHSC; settings: 3 μM; TGFβ1 1 ng/mL, 24 hours, serum free
Protocol: as §1
Total RNA was isolated using RNeasy® Mini Kit (Qiagen) following manufacturer's instructions. […]
Quantitative PCR was then carried out using the MyiQ Single-Color Real-Time PCR Detection or the iCycler iQ Multiplex Real-Time PCR Detection System (both systems from Biorad). […]
as §5, §6

CNC(=O)c1cc(Oc2ccc(NC(=O)Nc3ccc(Cl)c(C(F)(F)F)c3)cc2)ccn1 [Sorafenib]
Emax, reduction in αSMA gene expression vs hHSC treated with TGFβ1 alone [1]: −95% | Emax, reduction in VEGFR1 gene expression vs hHSC treated with TGFβ1 alone [2]: −95% | Emax, reduction in Col4α1 gene expression vs hHSC treated with TGFβ1 alone [3]: −93% | Emax, reduction in HGFR gene expression vs hHSC treated with TGFβ1 alone [4]: −79% | Emax, reduction in TGFβR1 gene expression vs hHSC treated with TGFβ1 alone [5]: −80% | Emax, reduction in FGFR1 gene expression vs hHSC treated with TGFβ1 alone [6]: −43% | Emax, reduction in Col1α1 gene expression vs hHSC treated with TGFβ1 alone [7]: −93%

Reference: US10792277B2, “Methods of treatment of fibrosis and cancers” (GENFIT, priority 2013, dated 2020)
